ChEMBL document CHEMBL1201862, “PubChem BioAssay data set” (2004)
Where “and” joins values, the source holds several entries; their conditions need not be identical. Identical values can stand only once.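 Interpolation was linear, between the two tested concentrations surrounding the appropriate level; five concentrations were tested over 48 hours in 96-well plates. GI50 is the concentration that inhibits growth by half.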 Calls of active or inactive are those of the source. Cut-off read from the data, not from the text of the source: active = GI50 up to about 1.1 µM and inactive = higher. Starred links: 1 amine or outer side, 2 acyl side, 3 side chain; linkers in the order of their positions; H or OH if unused. Non-standard residues stand in square brackets, D forms with d. Residues, ends and D or L forms follow the SMILES beside them. X35 = C=CCC(O[*:1])C(=O)[*:2]; NMeV = CN[CH](C(=O)O)C(C)C; NMeA = CN[CH](C)C(=O)O; βAla = NCCC(=O)O

What was measured:
Assay in all cases: NCI anticancer screen, dose series, 48 h
MDA-MB-231 = tested on: MDA-MB-231
HT-29 = tested on: HT-29
UO-31 = tested on: UO-31
HCC 2998 = tested on: HCC 2998
MDA-MB-435 = tested on: MDA-MB-435
SNB-19 = tested on: SNB-19
EKVX = tested on: EKVX
SF-268 = tested on: SF-268
NCI-H522 = tested on: NCI-H522
NCI-H23 = tested on: NCI-H23
LOX IMVI = tested on: LOX IMVI
KM12 = tested on: KM12
BT-549 = tested on: BT-549
M14 = tested on: M14
SK-MEL-5 = tested on: SK-MEL-5
CAKI-1 = tested on: CAKI-1
A549 = tested on: A549
MDA-N = tested on: MDA-N
OVCAR-3 = tested on: OVCAR-3
HOP-18 = tested on: HOP-18

O=C1CCC2(CCO1)OCCO2
GI50 (MDA-MB-231): > 100 µM (inactive) | GI50 (HT-29): > 100 µM (inactive) | GI50 (UO-31): > 100 µM (inactive) | GI50 (HCC 2998): > 100 µM (inactive) | GI50 (MDA-MB-435): > 100 µM (inactive) | GI50 (SNB-19): > 100 µM (inactive) | GI50 (EKVX): > 100 µM (inactive) | GI50 (SF-268): > 100 µM (inactive) | GI50 (NCI-H522): > 100 µM (inactive) | GI50 (NCI-H23): > 100 µM (inactive) | GI50 (LOX IMVI): > 100 µM (inactive) | GI50 (KM12): > 100 µM (inactive) | GI50 (BT-549): > 100 µM (inactive) | GI50 (M14): > 100 µM (inactive) | GI50 (SK-MEL-5): > 100 µM (inactive) | GI50 (CAKI-1): > 100 µM (inactive) | GI50 (A549): > 100 µM (inactive) | GI50 (MDA-N): > 100 µM (inactive) | GI50 (OVCAR-3): > 100 µM (inactive)

Cc1cc(C)c(C(=O)C(C)C(c2ccccc2)c2ccc(Cl)cc2)c(C)c1 (stereo unspecified)
GI50 (HT-29): 34.4 µM (inactive) and 43.5 µM (inactive) | GI50 (UO-31): 50.8 µM (inactive) | GI50 (HOP-18): > 100 µM (inactive) | GI50 (EKVX): > 100 µM (inactive) | GI50 (SF-268): > 100 µM (inactive) | GI50 (NCI-H23): > 100 µM (inactive) and 60.7 µM (inactive) | GI50 (KM12): > 100 µM (inactive) and 96.4 µM (inactive) | GI50 (M14): 82.8 µM (inactive) and 75.7 µM (inactive) | GI50 (SK-MEL-5): > 100 µM (inactive) | GI50 (CAKI-1): > 100 µM (inactive) | GI50 (A549): > 100 µM (inactive) | GI50 (OVCAR-3): > 100 µM (inactive)

COC(=O)C1(C#N)C(C)(C)N=C(c2ccccc2)C12CCCCC2 (stereo unspecified)
GI50 (MDA-MB-231): > 100 µM (inactive) | GI50 (HT-29): > 100 µM (inactive) | GI50 (UO-31): 75.7 µM (inactive) | GI50 (HCC 2998): > 100 µM (inactive) | GI50 (MDA-MB-435): > 100 µM (inactive) | GI50 (SNB-19): > 100 µM (inactive) | GI50 (EKVX): > 100 µM (inactive) | GI50 (SF-268): > 100 µM (inactive) | GI50 (NCI-H522): > 100 µM (inactive) | GI50 (NCI-H23): > 100 µM (inactive) | GI50 (LOX IMVI): > 100 µM (inactive) | GI50 (KM12): > 100 µM (inactive) | GI50 (BT-549): > 100 µM (inactive) | GI50 (M14): > 100 µM (inactive) | GI50 (SK-MEL-5): > 100 µM (inactive) | GI50 (CAKI-1): > 100 µM (inactive) | GI50 (A549): 85.7 µM (inactive) | GI50 (MDA-N): > 100 µM (inactive) | GI50 (OVCAR-3): > 100 µM (inactive)

COc1cc2cc(C(=O)N3CC(COS(C)(=O)=O)c4c3cc(N)c3ccccc43)[nH]c2c(OC)c1OC (stereo unspecified)
GI50 (MDA-MB-231): < 0.01 µM (active) | GI50 (HT-29): < 0.01 µM (active) | GI50 (UO-31): 0.0141 µM (active) | GI50 (HCC 2998): 0.0148 µM (active) | GI50 (MDA-MB-435): 0.0152 µM (active) | GI50 (SNB-19): < 0.0491 µM (active) | GI50 (EKVX): 0.0216 µM (active) | GI50 (SF-268): 0.0188 µM (active) | GI50 (NCI-H522): 0.0146 µM (active) | GI50 (NCI-H23): < 0.0179 µM (active) | GI50 (LOX IMVI): 0.0172 µM (active) | GI50 (KM12): 0.0194 µM (active) | GI50 (BT-549): 0.0187 µM (active) | GI50 (M14): 0.0169 µM (active) | GI50 (SK-MEL-5): < 0.01 µM (active) | GI50 (CAKI-1): 0.0211 µM (active) | GI50 (A549): 0.0146 µM (active) | GI50 (MDA-N): 0.0195 µM (active) | GI50 (OVCAR-3): 0.0404 µM (active)

c1ccc2c(c1)Nc1c3ccccc3nc3cccc-2c13
GI50 (MDA-MB-231): 0.923 µM (active) | GI50 (HT-29): 0.546 µM (active) | GI50 (UO-31): 1.36 µM (inactive) | GI50 (HCC 2998): 1.02 µM (active) | GI50 (MDA-MB-435): 1.61 µM (inactive) | GI50 (SNB-19): 1.82 µM (inactive) | GI50 (EKVX): 1.55 µM (inactive) | GI50 (SF-268): 1.49 µM (inactive) | GI50 (NCI-H522): 1.23 µM (inactive) | GI50 (NCI-H23): 1.35 µM (inactive) | GI50 (LOX IMVI): 0.877 µM (active) | GI50 (KM12): 1.12 µM (active) | GI50 (BT-549): 7.43 µM (inactive) | GI50 (M14): 1.76 µM (inactive) | GI50 (SK-MEL-5): 1.42 µM (inactive) | GI50 (CAKI-1): 1.08 µM (active) | GI50 (A549): 1.05 µM (active) | GI50 (MDA-N): 1.17 µM (inactive) | GI50 (OVCAR-3): 1.46 µM (inactive)

COC(=O)NCCc1n[nH]c2c1C(=O)C=C(Nc1ccccc1)C2=O
GI50 (MDA-MB-231): 25.9 µM (inactive) | GI50 (HT-29): 24.1 µM (inactive) | GI50 (UO-31): 35.3 µM (inactive) | GI50 (HCC 2998): 38.2 µM (inactive) | GI50 (MDA-MB-435): 17 µM (inactive) | GI50 (SNB-19): 28 µM (inactive) | GI50 (EKVX): 27.3 µM (inactive) | GI50 (SF-268): 26 µM (inactive) | GI50 (NCI-H522): 13.5 µM (inactive) | GI50 (NCI-H23): 15.1 µM (inactive) | GI50 (LOX IMVI): 15.5 µM (inactive) | GI50 (KM12): 18.4 µM (inactive) | GI50 (BT-549): 23.4 µM (inactive) | GI50 (M14): 33.4 µM (inactive) | GI50 (SK-MEL-5): 17.9 µM (inactive) | GI50 (CAKI-1): 46.1 µM (inactive) | GI50 (A549): 36.7 µM (inactive) | GI50 (MDA-N): 17.9 µM (inactive) | GI50 (OVCAR-3): 3.72 µM (inactive)

C=CCC1OC(=O)CCNC(=O)C(C)N(C)C(=O)C(C(C)C)N(C)C(=O)C(C(C)CC)NC(=O)C2CCCN2C1=O (stereo unspecified) (cyclo([X35]PI[NMeV][NMeA][βAla]); configuration not given here)
GI50 (MDA-MB-231): 1.62 µM (inactive) | GI50 (HT-29): 3.91 µM (inactive) | GI50 (UO-31): 22.8 µM (inactive) | GI50 (HCC 2998): 2.25 µM (inactive) | GI50 (MDA-MB-435): 4.22 µM (inactive) | GI50 (SNB-19): > 100 µM (inactive) | GI50 (EKVX): 3.23 µM (inactive) | GI50 (SF-268): 81.1 µM (inactive) | GI50 (NCI-H522): 16 µM (inactive) | GI50 (NCI-H23): 33.2 µM (inactive) | GI50 (LOX IMVI): 1.85 µM (inactive) | GI50 (KM12): 10.8 µM (inactive) | GI50 (BT-549): 32 µM (inactive) | GI50 (M14): 30.5 µM (inactive) | GI50 (SK-MEL-5): 2.44 µM (inactive) | GI50 (CAKI-1): 81.5 µM (inactive) | GI50 (A549): 9.84 µM (inactive) | GI50 (MDA-N): > 100 µM (inactive) | GI50 (OVCAR-3): 2.16 µM (inactive)
